Measurements: patent publication US12319664B2, “Herbicidally active 3-phenylisoxazoline-5-carboxamides of cyclopentenylcarboxylic acid derivatives” (Bayer Aktiengesellschaft, priority 2018, dated 2025)

What was measured:
POLCO = test: Post-emergence herbicidal action against POLCO; type: in vivo, Polygonum convolvulus; conditions: application rate 80 g/ha, rated visually about 3 weeks after treatment
How it was run: (§1)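 Aqueous suspensions or emulsions of WP/EC formulations containing 0.5% additive are sprayed at 600 l/ha onto plants at the one-leaf stage. After about 3 weeks in the greenhouse, activity is rated by eye versus untreated controls.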

AMARE = test: Post-emergence herbicidal action against AMARE; type: in vivo, Amaranthus retroflexus; conditions: application rate 80 g/ha, rated visually about 3 weeks after treatment
How it was run: as §1

ABUTH = test: Post-emergence herbicidal action against ABUTH; type: in vivo, Abutilon theophrasti; conditions: application rate 80 g/ha, rated visually about 3 weeks after treatment
How it was run: as §1

SETVI = test: Post-emergence herbicidal action against SETVI; type: in vivo, Setaria viridis; conditions: application rate 80 g/ha, rated visually after about 3 weeks
How it was run: as §1

ALOMY = test: Post-emergence herbicidal action against ALOMY; type: in vivo, Alopecurus myosuroides; conditions: application rate 80 g/ha, rated visually after about 3 weeks
How it was run: as §1

AVEFA = test: Post-emergence herbicidal action against AVEFA; type: in vivo, Avena fatua; conditions: application rate 80 g/ha, rated visually after about 3 weeks
How it was run: as §1

HORMU = test: Post-emergence herbicidal action against HORMU; type: in vivo, Hordeum murinum; conditions: application rate 80 g/ha
How it was run: as §1

STEME = test: Post-emergence herbicidal action against STEME; type: in vivo, Stellaria media; conditions: application rate 80 g/ha, rated visually about 3 weeks after treatment
How it was run: as §1

LOLRI = test: Post-emergence herbicidal action against LOLRI; type: in vivo, Lolium rigidum; conditions: application rate 80 g/ha, rated visually after about 3 weeks
How it was run: as §1

VIOTR = test: Post-emergence herbicidal action against VIOTR; type: in vivo, Viola tricolor; conditions: application rate 80 g/ha, rated visually about 3 weeks after treatment
Description: (§2) [table] 2. Post-emergence herbicidal action against harmful plants and crop plant compatibility Seeds of monocotyledonous and dicotyledonous weeds and crop plants are placed in sandy loam in plastic or wood-fibre pots, covered with soil and cultivated in a greenhouse under controlled growth conditions. 2 to 3 weeks after sowing, the test plants are treated at the one-leaf stage. The compounds of the invention, formulated in the form of wettable powders (WP) or as emulsion concentrates (EC), are then sprayed onto the green parts of the plants as aqueous suspension or emulsion with addition of 0.5% additive at a water application rate of 600 l/ha (converted). After the test plants have been kept in the greenhouse under optimum growth conditions for about 3 weeks, the activity of the preparations is rated visually in comparison to untreated controls. For example, 100% activity=the plants have died, 0% activity=like control plants.

VERPE = test: Post-emergence herbicidal action against VERPE; type: in vivo, Veronica persica; conditions: application rate 80 g/ha
How it was run: as §1

ECHCG = test: Post-emergence herbicidal action against ECHCG; type: in vivo, Echinochloa crus-galli; conditions: application rate 80 g/ha, rated visually after about 3 weeks
How it was run: as §1

PHBPU = test: Post-emergence herbicidal action against PHBPU; type: in vivo, Pharbitis purpurea; conditions: application rate 80 g/ha, rated visually about 3 weeks after treatment
Description: as §2

Row | SMILES | Herbicidal action against [%] POLCO (POLCO) | Herbicidal action against [%] AMARE (AMARE) | Herbicidal action against [%] ABUTH (ABUTH) | Herbicidal action against [%] SETVI (SETVI) | Herbicidal action against [%] ALOMY (ALOMY) | Herbicidal action against [%] AVEFA (AVEFA) | Herbicidal action against [%] HORMU (HORMU) | Herbicidal action against [%] STEME (STEME) | Herbicidal action against [%] LOLRI (LOLRI) | Herbicidal action against [%] VIOTR (VIOTR) | Herbicidal action against [%] VERPE (VERPE) | Herbicidal action against [%] ECHCG (ECHCG) | Herbicidal action against [%] PHBPU (PHBPU)
1 | COC(=O)C(NC(=O)C1C=CC(NC(=O)C2(C(F)(F)F)CC(c3cc(F)cc(F)c3)=NO2)C1)C(C)C (mixture of isomers) [II-37] | 100% | 90% | 80% | 80% | 80% | 100% | 90% | 90% | 100% | 90% | 90% | – | –
2 | C=CC1(C(=O)NC2C=CC(C(=O)OC(C)(C)C)C2)CC(c2cc(F)cc(F)c2)=NO1 (mixture of isomers) [Example I-060] | – | 80% | – | – | 90% | 90% | 90% | – | – | 80% | – | 90% | 80%
3 | N#Cc1cc(F)cc(C2=NOC(C(=O)NC3C=CC(C(=O)OCCCl)C3)(C(F)(F)F)C2)c1 (mixture of isomers) [Example I-089] | 90% | 90% | 90% | 80% | 100% | 100% | 100% | 90% | 100% | 90% | 90% | 90% | –
4 | Cc1cc(C)cc(C2=NOC(C(=O)NC3C=CC(C(=O)OCC(F)(F)F)C3)(C(F)(F)F)C2)c1 (mixture of isomers) [Example I-057] | 80% | – | – | – | 90% | – | 80% | 80% | 90% | 80% | 80% | 80% | –
5 | O=C(C1C=CC(NC(=O)C2(C(F)(F)F)CC(c3cc(F)cc(F)c3)=NO2)C1)N1CCCCO1 (mixture of isomers) [II-31] | 90% | 80% | 90% | 80% | 90% | 100% | 80% | 90% | 90% | 90% | 90% | 90% | –
6 | C=CC1(C(=O)NC2C=CC(C(=O)O)C2)CC(c2cc(F)cc(F)c2)=NO1 (stereo not shown) [Example I-014] | 80% | 90% | – | 80% | 90% | 90% | 80% | 90% | 90% | 90% | 90% | 90% | –
7 | CCOC(=O)C1C=CC(NC(=O)C2(C(F)(F)F)CC(c3cccc(C#N)c3)=NO2)C1 (mixture of isomers) [Example I-072] | 90% | 80% | 80% | 80% | 90% | 100% | 90% | 80% | 90% | 80% | 80% | 90% | –
8 | COCCOC(=O)C1C=CC(NC(=O)C2(C(F)(F)F)CC(c3cc(F)cc(C#N)c3)=NO2)C1 (stereo not shown) [Example I-099] | 80% | 80% | – | 90% | 90% | 90% | 80% | 80% | 100% | 80% | 80% | 80% | –
9 | Cc1cc(Cl)cc(C2=NOC(C(=O)N[C@H]3C=C[C@@H](C(=O)OCC(F)(F)F)C3)(C(F)(F)F)C2)c1 (stereo partly shown) [Example I-029] | 80% | 90% | – | 80% | 90% | 80% | 80% | – | 90% | 80% | 90% | – | –
10 | COC(=O)C(C)(C)NC(=O)C1C=CC(NC(=O)C2(C(F)(F)F)CC(c3cc(F)cc(F)c3)=NO2)C1 (mixture of isomers) [II-36] | 90% | 90% | – | – | 90% | 100% | 80% | – | 90% | 90% | 80% | – | 90%
11 | O=C(O)C1=C[C@@H](NC(=O)[C@@]2(C(F)(F)F)CC(c3cc(F)cc(F)c3)=NO2)CC1 [Example V-04] | – | 80% | 80% | 80% | 100% | – | 90% | 90% | 90% | 80% | 80% | 80% | –
12 | CCCS(=O)(=O)NC(=O)C1C=CC(NC(=O)C2(C(F)(F)F)CC(c3cc(F)cc(F)c3)=NO2)C1 (mixture of isomers) [II-33] | 90% | 90% | 80% | 80% | – | 100% | 90% | 80% | 90% | 90% | 80% | 80% | –
13 | CC(C)(C#N)NC(=O)C1C=CC(NC(=O)C2(C)CC(c3cc(F)cc(F)c3)=NO2)C1 (mixture of isomers) [II-10] | 90% | 80% | – | – | 90% | 90% | – | 90% | 90% | 90% | 80% | 90% | 90%
